# Columns and labels:
# Experiment in all cases: Antimicrobial effectiveness on inoculated broccoli, 5 minute soak
# Type in all cases: cell-based
# [1] = system: E-Coli; details: 5 g/L
# Procedure: (§1) Concentrated powdered compositions E and F are prepared and dissolved in deionized and hard water (10 gpg) at a level of 5 grams of composition per Liter of water to form a dilute aqueous treatment composition. The dilute aqueous treatment compositions are then tested on broccoli samples for antimicrobial effectiveness.
# (§2) A Broccoli sample is innoculated with a bacterial solution containing ≧10^8 cfu bacterium per ml. Application of 100 microliters of this solution to the surface results in approximately 10^6 to 10^7 cfu per broccoli piece. Equal amounts of small spots are deposited to facilitate drying. After 30 minutes dry time the sample is placed in 50 ml of the dilute aqueous treatment composition for a 5 minute soak. After the 5 minute soak the sample is transferred to 50 ml of a neutralizer before being stomached for 2 minutes and subsequently plated to enumerate the organisms surviving the treatments. Suprisingly the acid-anionic system maintained equal or better antimicrobial activity vs. 200 ppm hypochlorite bleach over the range from 0 to 10 gpg, as shown by the data in the following Tables.
# [2] = system: Staph aureus; details: 5 g/L
# Procedure: as §1, §2
# [3] = system: Listeria; details: 0 gpg water
# Procedure: as §1, §2
# (§3) Composition E is further tested on Salmonella and Listeria on broccoli with similar results.
# [4] = system: Salmonella; details: 0 gpg water
# Procedure: as §1, §2, §3
compound,measurement,setting,value
"[Na+].[O-]Cl [200 ppm NaOCl, NaOCl]",Log Reduction (greater than water alone) in 5 minutes,[1]; 0 gpg water,0.86 log
same,Log Reduction in 5 minutes,[1]; 0 gpg water,1.2 log
same,Log Reduction (greater than water alone) in 5 minutes,[1]; 10 gpg water,0.93 log
same,Log Reduction in 5 minutes,[1]; 10 gpg water,1.3 log
same,Log Reduction (greater than water alone) in 5 minutes,[2]; 0 gpg water,1.08 log
same,Log Reduction in 5 minutes,[2]; 0 gpg water,1.5 log
same,Log Reduction (greater than water alone) in 5 minutes,[2]; 10 gpg water,0.89 log
same,Log Reduction in 5 minutes,[2]; 10 gpg water,1.3 log
same,Log Reduction (greater than water alone) in 5 minutes,[3],0.77 log
same,Log Reduction (greater than water alone) in 5 minutes,[4],0.67 log

# Source: patent US20010046979A1, “Acidic antimicrobial compositions for treating food and food contact surfaces and methods of use thereof” (priority 2000, published 2001)
